# Measured values taken from BindingDB's records for doi:10.1016/j.bmcl.2004.03.090 (Johnson & Johnson Pharmaceutical Research & Development, 2004).
# Biological target: Glycogen synthase kinase-3 beta (Oryctolagus cuniculus)
# Experiment: Inhibitory concentration against rabbit glycogen synthase kinase-3 beta using protein phosphatase inhibitor-2 as substrate
row,IC50 [µM],SMILES
1,0.065,"CCn1cc(C2=C(c3cn(CCCO)c4ncccc34)C(=O)NC2=O)c2cccnc21 [3-(1-Ethyl-1H-pyrrolo[2,3-b]pyridin-3-yl)-4-[1-(3-hydroxy-propyl)-1H-pyrrolo[2,3-b]pyridin-3-yl]-pyrrole-2,5-dione]"
2,0.006,"O=C1NC(=O)C(c2cn(CCCO)c3ncccc23)=C1c1ccc(F)cc1Cl [3-(2-Chloro-4-fluoro-phenyl)-4-[1-(3-hydroxy-propyl)-1H-pyrrolo[2,3-b]pyridin-3-yl]-pyrrole-2,5-dione]"
3,0.031,"O=C1NC(=O)C(c2cn(CCCO)c3ncccc23)=C1c1cccc2ccccc12 [3-[1-(3-Hydroxy-propyl)-1H-pyrrolo[2,3-b]pyridin-3-yl]-4-naphthalen-1-yl-pyrrole-2,5-dione]"
4,0.48,"O=C1NC(=O)C(c2cn(CCCO)c3ncccc23)=C1c1ccccn1 [3-[1-(3-Hydroxy-propyl)-1H-pyrrolo[2,3-b]pyridin-3-yl]-4-pyridin-2-yl-pyrrole-2,5-dione]"

# More lines, now with the values behind:
row,SMILES,IC50 [µM]
1,COc1ccccc1C1=C(c2cn(CCCNS(N)(=O)=O)c3ncccc23)C(=O)NC1=O [3-(7-Azaindolyl)-4-arylmaleimide analogue],0.02
2,"COc1ccccc1C1=C(c2cn(CCCNC=O)c3ncccc23)C(=O)NC1=O [N-(3-{3-[4-(2-Methoxy-phenyl)-2,5-dioxo-2,5-dihydro-1H-pyrrol-3-yl]-pyrrolo[2,3-b]pyridin-1-yl}-propyl)-formamide]",0.008
3,"COc1ccccc1C1=C(c2cn(CCCNS(C)(=O)=O)c3ncccc23)C(=O)NC1=O [N-(3-{3-[4-(2-Methoxy-phenyl)-2,5-dioxo-2,5-dihydro-1H-pyrrol-3-yl]-pyrrolo[2,3-b]pyridin-1-yl}-propyl)-methanesulfonamide]",0.014
